Results published in patent publication US7173004B2, “Macrocyclic isoquinoline peptide inhibitors of hepatitis C virus” (Bristol-Myers Squibb Company, priority 2003, dated 2007).

These compounds were tested against T1, HCV NS3/4A protease complex, BMS strain (genotype 1a) (UniProt P27958, C1454S/C1711G, species not given/STRAIN_BMS) (assay: Recombinant HCV NS3/4A protease complex FRET peptide assay, BMS strain). Settings: NS3/4A BMS Strain; activity range classes.
T1 construct: b1001: DNA encoding the recombinant HCV NS3/4A protease complex (amino acids 1027 to 1711) ... a three-lysine solubilizing tail was added at the 3′-end of the NS4A coding region; fused on or other part: Three-lysine solubilising tail at the C-terminus of NS4A; A His tag is implied by the pET21b vector and Ni-NTA purification
Type: biochemical
Source text: Recombinant HCV NS3/4A Protease Complex FRET Peptide Assay
The purpose of this in vitro assay was to measure the inhibition of HCV NS3 protease complexes, derived from the BMS strain, H77C strain or J416S strain, as described below, by compounds of the present invention. This assay provides an indication of how effective compounds of the present invention would be in inhibiting HCV proteolytic activity.
Serum from an HCV-infected patient was obtained from Dr. T. Wright, San Francisco Hospital. An engineered full-length cDNA (compliment deoxyribonucleic acid) template of the HCV genome (BMS strain) was constructed from DNA fragments obtained by reverse transcription-PCR (RT-PCR) of serum RNA (ribonucleic acid) and using primers selected on the basis of homology between other genotype 1a strains. From the determination of the entire genome sequence, a genotype 1a was assigned to the HCV isolate according to the classification of Simmonds et al. (See P Simmonds, K A Rose, S Graham, S W Chan, F McOmish, B C Dow, E A Follett, P L Yap and H Marsden, J. Clin. Microbiol., 31(6), 1493–1503 (1993)). […] The infectious clones, H77C (1a genotype) and J4L6S (1b genotype) were obtained from R. Purcell (NIH) and the sequences are published in Genbank (AAB67036, see Yanagi, M., Purcell, R. H., Emerson, S. U. and Bukh, J. Proc. Natl. Acad. Sci. U.S.A. 94(16), 8738–8743 (1997); AF054247, see Yanagi, M., St Claire, M., Shapiro, M., Emerson, S. U., Purcell, R. H. and Bukh, J, Virology 244 (1), 161–172. (1998)).
The H77C and J4L6S strains were used for production of recombinant NS3/4A protease complexes. DNA encoding the recombinant HCV NS3/4A protease complex (amino acids 1027 to 1711) for these strains were manipulated as described by P. Gallinari et al. (see Gallinari P, Paolini C, Brennan D, Nardi C, Steinkuhler C, De Francesco R. Biochemistry. 38(17):5620–32, (1999)). Briefly, a three-lysine solubilizing tail was added at the 3′-end of the NS4A coding region. The cysteine in the P1 position of the NS4A-NS4B cleavage site (amino acid 1711) was changed to a glycine to avoid the proteolytic cleavage of the lysine tag. Furthermore, a cysteine to serine mutation was introduced by PCR at amino acid position 1454 to prevent the autolytic cleavage in the NS3 helicase domain. The variant DNA fragment was cloned in the pET21b bacterial expression vector (Novagen) and the NS3/4A complex was expressed in Escherichia coli strain BL21 (DE3) (Invitrogen) following the protocol described by P. Gallinari et al. (see Gallinari P, Brennan D, Nardi C, Brunetti M, Tomei L, Steinkuhler C, De Francesco R., J. Virol. 72(8):6758–69 (1998)) with modifications. Briefly, NS3/4A expression was induced with 0.5 mM Isopropyl β-D-1-thiogalactopyranoside (IPTG) for 22 hr at 20° C. A typical fermentation (10 L) yielded approximately 80 g of wet cell paste. The cells were resuspended in lysis buffer (10 mL/g) consisting of 25 mM N-(2-Hydroxyethyl)piperazine-N′-(2-Ethane Sulfonic acid) (HEPES), pH7.5, 20% glycerol, 500 mM Sodium Chloride (NaCl), 0.5% Triton-X100, 1 microgram/milliliter (“μg/mL”) lysozyme, 5 mM Magnesium Chloride (MgCl2), 1 ug/ml DnaseI, 5 mM β-Mercaptoethanol (βME), Protease inhibitor—Ethylenediamine Tetraacetic acid (EDTA) free (Roche), homogenized and incubated for 20 mins at 4° C. The homogenate was sonicated and clarified by ultra-centrifugation at 235000 g for 1 hr at 4° C. Imidazole was added to the supernatant to a final concentration of 15 mM and the pH adjusted to 8.0. The crude protein extract was loaded on a Nickel-Nitrilotriacetic acid (Ni-NTA) column pre-equilibrated with buffer B (25 mM HEPES, pH8.0, 20% glycerol, 500 mM NaCl, 0.5% Triton-X100, 15 mM imidazole, 5 mM βME). The sample was loaded at a flow rate of 1 mL/min. The column was washed with 15 column volumes of buffer C (same as buffer B except with 0.2% Triton-X100). The protein was eluted with 5 column volumes of buffer D (same as buffer C except with 200 mM Imidazole). […]
Compound `COc1ccc2c(OC3CC4C(=O)NC5(C(=O)O)CC5C=CCOCCCC(NC(=O)OC(C)(C)C)C(=O)N4C3)nccc2c1` (stereo not drawn) [Compound 27, 14-tert-Butoxycarbonylamino-18-(6-methoxy-isoquinolin-1-yloxy)-2,15-dioxo-10-oxa-3,16-diaza-tricyclo[14.3.0.0^4,6]nonadec-7-ene-4-carboxylic acid] has an IC50 of 0.05 to 0.5 µM. `COc1ccc2c(OC3CC4C(=O)NC5(C(=O)O)CC5C=CCCCSCC(NC(=O)OC(C)(C)C)C(=O)N4C3)nccc2c1` (stereo not drawn) [Compound 18A, 14-tert-Butoxycarbonylamino-18-(6-methoxy-isoquinolin-1-yloxy)-2,15-dioxo-12-thia-3,16-diaza-tricyclo[14.3.0.0^4,6]nonadec-7-ene-4-carboxylic acid] gave an IC50 of 0.05 to 0.5 µM.

Same assay, conditions: NS3/4A BMS strain; activity range symbols
`COc1ccc2c(OC3CC4C(=O)NC5(C(=O)NS(=O)(=O)C6(C)CC6)CC5C=CCCCOC(C)C(NC(=O)OC(C)C)C(=O)N4C3)nccc2c1` (stereo not drawn) [Compound 68] showed an IC50 of less than 0.05 µM. Work on `CC(C)(C)OC(=O)N[C@H]1CCCCC/C=C\[C@@H]2C[C@@]2(C(=O)NS(=O)(=O)C2CC2)NC(=O)[C@@H]2C[C@@H](Oc3nccc4ccccc34)CN2C1=O` [Compound 4, [4-Cyclopropanesulfonylaminocarbonyl-18-(isoquinolin-1-yloxy)-2,15-dioxo-3,16-diaza-tricyclo[14.3.0.0^4,6]nonadec-7-en-14-yl]-carbamic acid tert-butyl ester] yielded an IC50 of less than 0.05 µM. `CCC1(S(=O)(=O)NC(=O)C23CC2C=CCCCOC(C)C(NC(=O)NC2CCCC2)C(=O)N2CC(Oc4nccc5cc(OC)ccc45)CC2C(=O)N3)CC1` (stereo not drawn) [Compound 73] was tested, and the IC50 was less than 0.05 µM. Compound `COc1ccc2c(OC3CC4C(=O)NC5(C(=O)NS(=O)(=O)C6CC6)CC5C=CCOCCCC(NC(=O)OC(C)C)C(=O)N4C3)nccc2c1` (stereo not drawn) [Compound 31] has an IC50 of less than 0.05 µM. Compound `CCC1(S(=O)(=O)NC(=O)C23CC2C=CCCCSCC(NC(=O)OCC(C)(C)C)C(=O)N2CC(Oc4nccc5cc(OC)ccc45)CC2C(=O)N3)CC1` (stereo not drawn) [Compound 45] has an IC50 of less than 0.05 µM. `CC1(OC(=O)NC2CCCCCC=CC3CC3(C(=O)NS(=O)(=O)C3CC3)NC(=O)C3CC(Oc4nccc5ccccc45)CN3C2=O)CCCC1` (stereo not drawn) [Compound 50] showed an IC50 of less than 0.05 µM. `CC(C)(C)OC(=O)N[C@H]1CCCCCCC[C@@H]2C[C@@]2(C(=O)NS(=O)(=O)C2CC2)NC(=O)[C@@H]2C[C@@H](Oc3nccc4ccccc34)CN2C1=O` [Compound 10, [4-Cyclopropanesulfonylaminocarbonyl-18-(isoquinolin-1-yloxy)-2,15-dioxo-3,16-diaza-tricyclo[14.3.0.0^4,6]nonadec-14-yl]-carbamic acid tert-butyl ester] gave an IC50 of less than 0.05 µM. `CS(=O)(=O)NC1CCCCCC=CC2CC2(C(=O)NS(=O)(=O)C2CC2)NC(=O)C2CC(Oc3nccc4ccccc34)CN2C1=O` (stereo not drawn) [Compound 25] was tested, and the IC50 was less than 0.05 µM. `COc1ccc2c(OC3CC4C(=O)NC5(C(=O)NS(=O)(=O)C6CC6)CC5C=CCOCCCC(NC(=O)NC5CCCC5)C(=O)N4C3)nccc2c1` (stereo not drawn) [Compound 33] gave an IC50 of less than 0.05 µM. For `COc1ccc2c(OC3CC4C(=O)NC5(C(=O)NS(=O)(=O)C6CC6)CC5C=CCCCOC(C)C(NC(=O)OC(C)(C)C)C(=O)N4C3)nccc2c1` (stereo not drawn) [Compound 62], the IC50 was less than 0.05 µM. `COc1c(NC2CCCCCC=CC3CC3(C(=O)NS(=O)(=O)C3CC3)NC(=O)C3CC(Oc4nccc5ccccc45)CN3C2=O)c(=O)c1=O` (stereo not drawn) [Compound 21] gave an IC50 of less than 0.05 µM. With `CCC1(S(=O)(=O)NC(=O)C23CC2C=CCCCSCC(NC(=O)NC2CCCC2)C(=O)N2CC(Oc4nccc5cc(OC)ccc45)CC2C(=O)N3)CC1` (stereo not drawn) [Compound 46] the IC50 was less than 0.05 µM. Work on `CC(C)(C)OC(=O)N[C@H]1CCCCC/C=C\[C@@H]2C[C@@]2(C(=O)NS(=O)(=O)C2(Cc3ccccc3)CC2)NC(=O)[C@@H]2C[C@@H](Oc3nccc4ccccc34)CN2C1=O` [Compound 5, [4-(1-Benzyl-cyclopropanesulfonylaminocarbonyl)-18-(isoquinolin-1-yloxy)-2,15-dioxo-3,16-diaza-tricyclo[14.3.0.0^4,6]nonadec-7-en-14-yl]-carbamic acid tert-butyl ester] yielded an IC50 of less than 0.05 µM. `CC(C)(C)OC(=O)NC1CSCCCC=CC2CC2(C(=O)NS(=O)(=O)C2CC2)NC(=O)C2CC(Oc3nccc4c(Cl)cccc34)CN2C1=O` (stereo not drawn) [Compound 78] showed an IC50 of less than 0.05 µM. `COc1ccc2c(OC3CC4C(=O)NC5(C(=O)NS(=O)(=O)C6(C)CC6)CC5C=CCCCOC(C)C(NC(=O)NC5CCCC5)C(=O)N4C3)nccc2c1` (stereo not drawn) [Compound 69] was tested, and the IC50 was less than 0.05 µM. Compound `O=C(N[C@H]1CCCCC/C=C\[C@@H]2C[C@@]2(C(=O)NS(=O)(=O)C2CC2)NC(=O)[C@@H]2C[C@@H](Oc3nccc4ccccc34)CN2C1=O)OC1CCOCC1` [Compound 14, [4-Cyclopropanesulfonylaminocarbonyl-18-(isoquinolin-1-yloxy)-2,15-dioxo-3,16-diaza-tricyclo[14.3.0.0^4,6]nonadec-7-en-14-yl]-carbamic acid tetrahydro-pyran-4-yl ester] has an IC50 of less than 0.05 µM. With `COc1ccc2c(OC3CC4C(=O)NC5(C(=O)NS(=O)(=O)C6(C)CC6)CC5C=CCOCCCC(NC(=O)OC(C)C)C(=O)N4C3)nccc2c1` (stereo not drawn) [Compound 35] the IC50 was less than 0.05 µM. With `CCC1(S(=O)(=O)NC(=O)C23CC2C=CCOCCCC(NC(=O)OC(C)C)C(=O)N2CC(Oc4nccc5cc(OC)ccc45)CC2C(=O)N3)CC1` (stereo not drawn) [Compound 37] the IC50 was less than 0.05 µM. For `COc1ccc2c(OC3C[C@H]4C(=O)N[C@]5(C(=O)NS(=O)(=O)C6CC6)C[C@H]5/C=C\CCCSC[C@H](NC(=O)OC(C)(C)C)C(=O)N4C3)nccc2c1` (stereo partly drawn) [Compound 18B, [4-Cyclopropanesulfonylaminocarbonyl-18-(6-methoxy-isoquinolin-1-yloxy)-2,15-dioxo-12-thia-3,16-diaza-tricyclo[14.3.0.0^4,6]nonadec-7-en-14-yl]-carbamic acid tert-butyl ester], the IC50 was less than 0.05 µM. `COc1ccc2c(OC3CC4C(=O)NC5(C(=O)NS(=O)(=O)C6(C)CC6)CC5C=CCCCCCC(NC(=O)OC(C)(C)C)C(=O)N4C3)nccc2c1` (stereo not drawn) [Compound 53] was tested, and the IC50 was less than 0.05 µM. For `CCC1(S(=O)(=O)NC(=O)C23CC2C=CCCCS(=O)(=O)CC(NC(=O)OC(C)(C)C)C(=O)N2CC(Oc4nccc5cc(OC)ccc45)CC2C(=O)N3)CC1` (stereo not drawn) [Compound 48], the IC50 was less than 0.05 µM. `CCC1(S(=O)(=O)NC(=O)C23CC2C=CCOCCCC(NC(=O)OC(C)(C)C)C(=O)N2CC(Oc4nccc5cc(OC)ccc45)CC2C(=O)N3)CC1` (stereo not drawn) [Compound 30] was tested, and the IC50 was less than 0.05 µM. `CC(C)(OC(=O)NC1CCCCCC=CC2CC2(C(=O)NS(=O)(=O)C2CC2)NC(=O)C2CC(Oc3nccc4ccccc34)CN2C1=O)C(F)(F)F` (stereo not drawn) [Compound 51] showed an IC50 of less than 0.05 µM. Compound `COc1ccc2c(OC3CC4C(=O)NC5(C(=O)NS(=O)(=O)C6(C)CC6)CC5C=CCCCSCC(NC(=O)OC(C)C)C(=O)N4C3)nccc2c1` (stereo not drawn) [Compound 41] has an IC50 of less than 0.05 µM. With `COc1ccc2c(OC3CC4C(=O)NC5(C(=O)NS(=O)(=O)C6CC6)CC5C=CCOCCCC(NC(=O)OC(C)(C)C(F)(F)F)C(=O)N4C3)nccc2c1` (stereo not drawn) [Compound 39] the IC50 was less than 0.05 µM.
